Experimental data taken from paper PMC3095510 (Biomacromolecules, 2011).
Ends that are not written are not given here.

Tested on: anthrax lethal toxin (PA and LF), RAW264.7 cells

## HTSTYWWLDGAP
  concentration up to which cytotoxicity was not inhibited: > 2000 µM
